Measured values as given in patent US7598029B2, “Method for identifying HIV-1 protease inhibitors with reduced metabolic affects” (Bristol-Myers Squibb Company, priority 2006, dated 2009).
Blank lines part the entries; values can stand above or below the compound they belong to.

How the values were obtained:
[1] = human, in vivo; cited from earlier work
cathepsin E = target: T1, cathepsin E (Homo sapiens, UniProt P14091); assay: Protease digestion of resistin by cathepsin E with HIV-1 protease inhibitors, SDS-PAGE; format: biochemical; settings: for inhibition of cleavage of resistin by cathepsin E: 1 ug alkylated and reduced resistin, 0.1 ug cathepsin E
T1 construct: purchased R&D Systems Inc
T1 sequence (P14091 54-396): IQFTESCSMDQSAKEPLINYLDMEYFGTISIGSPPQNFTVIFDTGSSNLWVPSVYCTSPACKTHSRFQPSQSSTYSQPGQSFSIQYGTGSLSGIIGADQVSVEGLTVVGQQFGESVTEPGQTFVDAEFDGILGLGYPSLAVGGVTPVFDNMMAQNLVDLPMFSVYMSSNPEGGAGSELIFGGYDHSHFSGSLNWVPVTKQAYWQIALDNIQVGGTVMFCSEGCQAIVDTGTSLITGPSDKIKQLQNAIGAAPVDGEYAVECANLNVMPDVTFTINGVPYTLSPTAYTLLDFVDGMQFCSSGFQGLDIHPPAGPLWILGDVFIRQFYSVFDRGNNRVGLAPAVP
Experimental: (§1) Atazanavir was synthesized by and provided in pure form from the Chemistry Division of Bristol-Myers Squibb Co. All compounds were dissolved in 100% DMSO (Sigma). The final concentration of DMSO was 0.2% in experiments that included a protease inhibitor.
(§2) Recombinant Proteins: Recombinant human and mouse resistin were obtained from Santa Cruz Biotech. Recombinant cathepsin D and cathepsin E were obtained from R&D Systems Inc. Recombinant HIV-1 protease was obtained from Protein One. Recombinant renin was obtained from Cayman Chemical and recombinant trypsin was from Promega.
(§3) Alkylation/Reduction of Cysteine Residues: Lyophilized resistin (24 micrograms) was resuspended in 50 ul of fresh UA buffer (8 M urea, 0.4 M ammonium bicarbonate) and 5 ul of 45 mM DTT. The mixture was then incubated at 50° C. for 15 min, followed by addition of 5 ul of 0.1 M iodoacetamide. The reaction was then incubated for an additional 15 min in the dark at room temperature, followed by the addition of 140 ul of H20.
(§4) Preparation of Proteases: Lyophilized cathepsin D (10 ug) was resuspended in 100 ul H20. Cathepsin D was activated prior to use by incubating at 20 ng/ul in CathD buffer (100 mM NaOAc, 200 mM NaCl, pH 4.7) for 30 min at 37° C. Lyophilized cathepsin E (10 ug) was resuspended in 100 ul of reconstitution buffer (25 mM MES, 0.15 M NaCl, pH 6.5). Cathepsin E was activated prior to use by incubating at 20 ng/ul in CathE buffer (100 mM NaOAc, 100 mM NaCl, pH 4.7) for 30 min at room temperature. Renin was diluted to 20 ng/ul in renin buffer (50 mM Tris-HCl, pH 8, 100 mM NaCl) prior to use. Lyophilized trypsin (20 ug) was resuspended in 500 ul reconstitution buffer provided by the manufacturer (Promega). Trypsin was activated prior to use by incubating for 15 min at 30° C. HIV-1 protease was used directly from the manufacturer.
(§5) Protease Digestion Experiments: In all protease digestion reactions, 1 ug of alkylated and reduced resistin was incubated with either 1 ug HIV-1 protease, 0.1 ug cathepsin D, 0.1 ug cathepsin E or 0.1 ug trypsin. HIV-1 protease digestion was performed in HIV-1 PR buffer (50 mM MES (pH 6), 100 mM NaCl). Trypsin digestion was performed in TE buffer (10 mM Tris (pH 8), 0.1 mM EDTA (pH 8)). The respective reaction buffers for cathepsin D, cathepsin E and renin are listed above under “Preparation of proteases”. […] All protease digestion experiments were incubated for 24 hr at 37° C. with the exception of experiments containing cathepsin E, which were incubated at room temperature. Reactions were quenched in LDS loading dye (Invitrogen) containing reducing agent (Invitrogen). Reactions were subsequently heated at 70° C. for 5 min prior analysis by SDS-PAGE.
(§6) SDS-PAGE Analysis: Cleavage products were resolved using 4-12% Bis-Tris NUPAGE® Gels (Invitrogen). Gels were run at 200 V for 20 min in MES buffer. Protein bands were visualized by staining with Gel Code reagent (Pierce).

cathepsin D = target: T2, cathepsin D (Homo sapiens, UniProt P07339); assay: Protease digestion of resistin by cathepsin D with HIV-1 protease inhibitors, SDS-PAGE; format: biochemical; settings: for inhibition of cleavage of resistin by cathepsin D: 1 ug alkylated and reduced resistin, 0.1 ug cathepsin D
T2 construct: purchased R&D Systems Inc
Experimental: as §1, §2, §3, §4, §5, §6

T2 sequence (P07339 65-412): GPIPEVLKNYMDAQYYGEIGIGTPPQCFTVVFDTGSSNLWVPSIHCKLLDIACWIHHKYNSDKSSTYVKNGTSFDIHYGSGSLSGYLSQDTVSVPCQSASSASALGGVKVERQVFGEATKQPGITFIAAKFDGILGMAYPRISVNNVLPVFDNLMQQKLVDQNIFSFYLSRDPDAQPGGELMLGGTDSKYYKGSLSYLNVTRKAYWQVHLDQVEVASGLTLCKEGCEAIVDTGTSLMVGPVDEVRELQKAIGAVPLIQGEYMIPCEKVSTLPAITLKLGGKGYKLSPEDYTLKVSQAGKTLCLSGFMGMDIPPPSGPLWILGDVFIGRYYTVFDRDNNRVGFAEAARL

inhibition of cleavage of resistin by cathepsin E (cathepsin E; 24 hr at room temperature): not detectably inhibited
inhibition of cleavage of resistin by cathepsin D (cathepsin D; 24 hr at 37° C.): not detectably inhibited
Structure (SMILES): COC(=O)N[C@H](C(=O)N[C@@H](Cc1ccccc1)[C@@H](O)CN(Cc1ccc(-c2ccccn2)cc1)NC(=O)[C@@H](NC(=O)OC)C(C)(C)C)C(C)(C)C [atazanavir]
change in fasting LDL cholesterol, total cholesterol, and fasting triglycerides [1]: either no change or decreases

inhibition of cleavage of resistin by cathepsin E (cathepsin E; 24 hr at room temperature): not
inhibition of cleavage of resistin by cathepsin D (cathepsin D; 24 hr at 37° C.): not
Structure (SMILES): CC(C)(C)NC(=O)[C@@H]1CN(Cc2cccnc2)CCN1C[C@@H](O)C[C@@H](Cc1ccccc1)C(=O)N[C@H]1c2ccccc2C[C@H]1O [indinavir]

Structure (SMILES): Cc1cccc(C)c1OCC(=O)N[C@@H](Cc1ccccc1)[C@@H](O)C[C@H](Cc1ccccc1)NC(=O)[C@H](C(C)C)N1CCCNC1=O [lopinovir]
correlation of lipid abnormalities with plasma concentrations [1]: did not correlate

inhibition of cleavage of resistin by cathepsin E (cathepsin E; 24 hr at room temperature): not
inhibition of cleavage of resistin by cathepsin D (cathepsin D; 24 hr at 37° C.): not
Structure (SMILES): Cc1c(O)cccc1C(=O)N[C@@H](CSc1ccccc1)[C@H](O)CN1C[C@H]2CCCC[C@H]2C[C@H]1C(=O)NC(C)(C)C [nelfinavir]
association with HIV-1 protease inhibitor induced metabolic abnormalities [1]: are not

concentration at which cleavage of resistin by cathepsin E was detectably inhibited (cathepsin E; 24 hr at room temperature, FIG. 2): 10 µM
concentration at which cleavage of resistin by cathepsin E was detectably inhibited (cathepsin E; Example 1, FIG. 2, 24 hr at room temperature): 10 µM
concentration at which cathepsin E was fully inhibited (cathepsin E; Example 1, resistin cleavage): 30 µM
concentration at which cathepsin E was fully inhibited (cathepsin E; resistin cleavage, 24 hr at room temperature): 30 µM
concentration at which cleavage of resistin by cathepsin D was detectably inhibited (cathepsin D; 24 hr at 37° C., FIG. 2): 30 µM
concentration at which cleavage of resistin by cathepsin D was detectably inhibited (cathepsin D; Example 1, FIG. 2, 24 hr at 37° C.): 30 µM
concentration at which cathepsin D was fully inhibited (cathepsin D; Example 1, resistin cleavage): 100 µM
concentration at which cathepsin D was fully inhibited (cathepsin D; resistin cleavage, 24 hr at 37° C.): 100 µM
Structure (SMILES): CC(C)c1nc(CN(C)C(=O)N[C@H](C(=O)N[C@@H](Cc2ccccc2)C[C@H](O)[C@H](Cc2ccccc2)NC(=O)OCc2cncs2)C(C)C)cs1 [ritonavir]
elevated plasma cholesterol and plasma triglyceride levels [1]: significantly more pronounced
frequency of hypertriglyceridaemia [1]: more frequent
hypercholesterolemia [1]: observed
hypertriglyceridaemia [1]: severe hypertriglyceridaemia

Structure (SMILES): CC(C)(C)NC(=O)[C@@H]1C[C@@H]2CCCC[C@@H]2CN1C[C@@H](O)[C@H](Cc1ccccc1)NC(=O)[C@H](CC(N)=O)NC(=O)c1ccc2ccccc2n1 [saquinavir]
association with HIV-1 protease inhibitor induced metabolic abnormalities [1]: known to be associated
inhibition of cleavage of resistin by cathepsin E (cathepsin E; 24 hr at room temperature): prevented
inhibition of cleavage of resistin by cathepsin D (cathepsin D; 24 hr at 37° C.): prevented
